In the NIST ThermoML archive (doi:10.1021/je0501843):
Values joined by “and” are separate entries in the source; they are usually repeats but may differ in a detail not shown here. Equal entries are not always repeated.

Assay: molar heat capacity at constant volume
Conditions: Fluid (supercritical or subcritical phases), Vacuum adiabatic calorimetry

FC(F)C(F)(F)F [pentafluoroethane]
Conditions | molar heat capacity at constant volume
382 K, Mass density=585 kg/m3 | 117.04 J/K/mol
382 K, Mass density=687.5 kg/m3 | 116.38 J/K/mol
382 K, Mass density=772.5 kg/m3 | 113.59 J/K/mol
382 K, Mass density=880.7 kg/m3 | 113.14 J/K/mol
382 K, Mass density=972.5 kg/m3 | 113.55 J/K/mol and 110.23 J/K/mol
383 K, Mass density=403.3 kg/m3 | 116.83 J/K/mol
383 K, Mass density=502.6 kg/m3 | 115.94 J/K/mol
383 K, Mass density=585 kg/m3 | 116.44 J/K/mol
383 K, Mass density=687.4 kg/m3 | 115.8 J/K/mol
383 K, Mass density=772.4 kg/m3 | 112.32 J/K/mol
383 K, Mass density=880.7 kg/m3 | 112.41 J/K/mol
383 K, Mass density=972.4 kg/m3 | 107.88 J/K/mol and 110.36 J/K/mol
384 K, Mass density=403.3 kg/m3 | 115.53 J/K/mol
384 K, Mass density=502.6 kg/m3 | 114.75 J/K/mol
384 K, Mass density=585 kg/m3 | 115.28 J/K/mol
384 K, Mass density=687.4 kg/m3 | 113.97 J/K/mol
384 K, Mass density=772.4 kg/m3 | 111.67 J/K/mol
384 K, Mass density=880.6 kg/m3 | 112.26 J/K/mol
384 K, Mass density=972.3 kg/m3 | 108.78 J/K/mol and 109.57 J/K/mol
385 K, Mass density=403.2 kg/m3 | 109.7 J/K/mol
385 K, Mass density=502.5 kg/m3 | 112.54 J/K/mol
385 K, Mass density=584.9 kg/m3 | 115.82 J/K/mol
385 K, Mass density=687.4 kg/m3 | 113.72 J/K/mol
385 K, Mass density=772.3 kg/m3 | 112.59 J/K/mol
385 K, Mass density=880.6 kg/m3 | 111.79 J/K/mol
385 K, Mass density=972.3 kg/m3 | 110.01 J/K/mol and 109.27 J/K/mol
386 K, Mass density=403.2 kg/m3 | 109.65 J/K/mol
386 K, Mass density=502.5 kg/m3 | 114.07 J/K/mol
386 K, Mass density=584.9 kg/m3 | 117.48 J/K/mol
386 K, Mass density=687.3 kg/m3 | 115.04 J/K/mol
386 K, Mass density=772.3 kg/m3 | 114.08 J/K/mol
386 K, Mass density=880.5 kg/m3 | 113.14 J/K/mol
386 K, Mass density=972.2 kg/m3 | 111.04 J/K/mol and 111.43 J/K/mol
387 K, Mass density=403.2 kg/m3 | 111.98 J/K/mol
387 K, Mass density=502.5 kg/m3 | 114.1 J/K/mol
387 K, Mass density=584.9 kg/m3 | 115.44 J/K/mol
387 K, Mass density=687.3 kg/m3 | 115.22 J/K/mol
387 K, Mass density=772.2 kg/m3 | 113.77 J/K/mol
387 K, Mass density=880.4 kg/m3 | 113.04 J/K/mol
387 K, Mass density=972.1 kg/m3 | 109.68 J/K/mol and 111.27 J/K/mol
388 K, Mass density=403.2 kg/m3 | 113.46 J/K/mol
388 K, Mass density=502.5 kg/m3 | 111.2 J/K/mol
388 K, Mass density=584.8 kg/m3 | 114.82 J/K/mol
388 K, Mass density=687.2 kg/m3 | 114.32 J/K/mol
388 K, Mass density=772.2 kg/m3 | 113.36 J/K/mol
388 K, Mass density=880.4 kg/m3 | 110.83 J/K/mol
388 K, Mass density=972 kg/m3 | 109.02 J/K/mol and 109.9 J/K/mol
389 K, Mass density=403.2 kg/m3 | 112.17 J/K/mol
389 K, Mass density=502.4 kg/m3 | 110.52 J/K/mol
389 K, Mass density=584.8 kg/m3 | 116.36 J/K/mol
389 K, Mass density=687.2 kg/m3 | 114.28 J/K/mol
389 K, Mass density=772.1 kg/m3 | 114.22 J/K/mol
389 K, Mass density=880.3 kg/m3 | 112.08 J/K/mol
389 K, Mass density=972 kg/m3 | 110.08 J/K/mol and 110.71 J/K/mol
390 K, Mass density=403.1 kg/m3 | 112.23 J/K/mol
390 K, Mass density=502.4 kg/m3 | 112.47 J/K/mol
390 K, Mass density=584.8 kg/m3 | 115.03 J/K/mol
390 K, Mass density=687.2 kg/m3 | 115.41 J/K/mol
390 K, Mass density=772.1 kg/m3 | 115.46 J/K/mol
390 K, Mass density=880.2 kg/m3 | 113.85 J/K/mol
390 K, Mass density=971.9 kg/m3 | 113.14 J/K/mol and 111.04 J/K/mol
391 K, Mass density=403.1 kg/m3 | 115.12 J/K/mol
391 K, Mass density=502.4 kg/m3 | 111.21 J/K/mol
391 K, Mass density=584.7 kg/m3 | 113.95 J/K/mol
391 K, Mass density=687.1 kg/m3 | 114.69 J/K/mol
391 K, Mass density=772 kg/m3 | 114.4 J/K/mol
391 K, Mass density=880.2 kg/m3 | 113.13 J/K/mol
391 K, Mass density=971.8 kg/m3 | 113.73 J/K/mol and 111.12 J/K/mol
392 K, Mass density=403.1 kg/m3 | 113.94 J/K/mol
392 K, Mass density=502.4 kg/m3 | 111.32 J/K/mol
392 K, Mass density=584.7 kg/m3 | 113.44 J/K/mol
392 K, Mass density=687.1 kg/m3 | 113.17 J/K/mol
392 K, Mass density=772 kg/m3 | 112.45 J/K/mol
392 K, Mass density=880.1 kg/m3 | 111.39 J/K/mol
392 K, Mass density=971.7 kg/m3 | 108.99 J/K/mol and 110.55 J/K/mol
393 K, Mass density=403.1 kg/m3 | 113.84 J/K/mol
393 K, Mass density=502.3 kg/m3 | 114.93 J/K/mol
393 K, Mass density=584.7 kg/m3 | 112.26 J/K/mol
393 K, Mass density=687 kg/m3 | 114.98 J/K/mol
393 K, Mass density=771.9 kg/m3 | 113.77 J/K/mol
393 K, Mass density=880 kg/m3 | 112.82 J/K/mol
393 K, Mass density=971.6 kg/m3 | 109.6 J/K/mol and 110.84 J/K/mol
394 K, Mass density=403.1 kg/m3 | 113.19 J/K/mol
394 K, Mass density=502.3 kg/m3 | 113.53 J/K/mol
394 K, Mass density=584.6 kg/m3 | 113.56 J/K/mol
394 K, Mass density=687 kg/m3 | 116.48 J/K/mol
394 K, Mass density=771.9 kg/m3 | 114.28 J/K/mol
394 K, Mass density=880 kg/m3 | 113.31 J/K/mol
394 K, Mass density=971.6 kg/m3 | 113.46 J/K/mol and 112.41 J/K/mol
395 K, Mass density=403 kg/m3 | 112.66 J/K/mol
395 K, Mass density=502.3 kg/m3 | 112.95 J/K/mol
395 K, Mass density=584.6 kg/m3 | 114.13 J/K/mol
395 K, Mass density=687 kg/m3 | 114.63 J/K/mol
395 K, Mass density=771.8 kg/m3 | 113.37 J/K/mol
395 K, Mass density=879.9 kg/m3 | 112.11 J/K/mol
395 K, Mass density=971.5 kg/m3 | 112.76 J/K/mol and 111.6 J/K/mol
396 K, Mass density=403 kg/m3 | 114.19 J/K/mol
396 K, Mass density=502.3 kg/m3 | 115.6 J/K/mol
396 K, Mass density=584.6 kg/m3 | 113.53 J/K/mol
396 K, Mass density=686.9 kg/m3 | 113.17 J/K/mol
396 K, Mass density=771.8 kg/m3 | 113.35 J/K/mol
396 K, Mass density=879.9 kg/m3 | 112.93 J/K/mol
396 K, Mass density=971.4 kg/m3 | 112.77 J/K/mol and 110.2 J/K/mol
397 K, Mass density=403 kg/m3 | 115.11 J/K/mol
397 K, Mass density=502.2 kg/m3 | 113.37 J/K/mol
397 K, Mass density=584.5 kg/m3 | 112.42 J/K/mol
397 K, Mass density=686.9 kg/m3 | 113.72 J/K/mol
397 K, Mass density=771.7 kg/m3 | 113.23 J/K/mol
397 K, Mass density=879.8 kg/m3 | 113.97 J/K/mol
397 K, Mass density=971.3 kg/m3 | 112.64 J/K/mol and 111.54 J/K/mol
398 K, Mass density=403 kg/m3 | 115.94 J/K/mol
398 K, Mass density=502.2 kg/m3 | 111.91 J/K/mol
398 K, Mass density=584.5 kg/m3 | 113.66 J/K/mol
398 K, Mass density=686.8 kg/m3 | 116.24 J/K/mol
398 K, Mass density=771.7 kg/m3 | 114.52 J/K/mol
398 K, Mass density=879.7 kg/m3 | 113.6 J/K/mol
398 K, Mass density=971.3 kg/m3 | 113.46 J/K/mol and 112.92 J/K/mol
399 K, Mass density=502.2 kg/m3 | 114.43 J/K/mol
399 K, Mass density=584.5 kg/m3 | 115.44 J/K/mol
399 K, Mass density=686.8 kg/m3 | 115.5 J/K/mol
399 K, Mass density=771.6 kg/m3 | 114.85 J/K/mol
399 K, Mass density=879.7 kg/m3 | 112.05 J/K/mol
399 K, Mass density=971.2 kg/m3 | 112.08 J/K/mol
